Drawing on ChEMBL document CHEMBL1135291, “Novel matrix metallo-proteinase (MMP-2) phosphonoboronate inhibitors” (Bioorg Med Chem Lett, 2002), this text covers inhibition for seven compounds.

Molecules are shown by their SMILES.

The assay has as its target 72 kDa type IV collagenase (Homo sapiens) (UniProt P08253). In words: Inhibition of Matrix metalloprotease-2 at 50 uM.

Sequence of 72 kDa type IV collagenase (Homo sapiens) (P08253 110-660 limits assumed): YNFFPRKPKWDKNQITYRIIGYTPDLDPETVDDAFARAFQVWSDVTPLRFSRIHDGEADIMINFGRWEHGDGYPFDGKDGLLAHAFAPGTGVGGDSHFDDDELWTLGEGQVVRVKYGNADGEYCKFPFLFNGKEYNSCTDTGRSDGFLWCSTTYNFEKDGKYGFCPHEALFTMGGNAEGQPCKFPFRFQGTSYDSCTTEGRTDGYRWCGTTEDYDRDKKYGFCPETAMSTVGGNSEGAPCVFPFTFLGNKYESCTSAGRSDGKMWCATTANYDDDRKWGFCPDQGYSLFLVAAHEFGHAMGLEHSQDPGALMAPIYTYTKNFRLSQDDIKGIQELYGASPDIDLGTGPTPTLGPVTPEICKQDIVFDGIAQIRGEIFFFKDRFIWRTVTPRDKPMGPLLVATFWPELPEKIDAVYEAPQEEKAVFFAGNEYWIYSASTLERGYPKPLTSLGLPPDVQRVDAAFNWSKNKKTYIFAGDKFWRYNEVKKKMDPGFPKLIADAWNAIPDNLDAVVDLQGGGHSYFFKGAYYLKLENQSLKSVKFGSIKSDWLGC

Compound `CCCCCC(B1OC(C)(C)C(C)(C)O1)P(=O)(O)O` (configuration not stated) registered an inhibition of 50%. Regarding `CC1(C)OB(C(CCCCl)P(=O)(O)O)OC1(C)C` (configuration not stated), the inhibition is 55%.

The compound `CC1(C)OB(/C=C/CP(=O)(O)O)OC1(C)C` registered an inhibition of 75%.

Turning to `CC1(C)OB(C(Cc2ccccc2)P(=O)(O)O)OC1(C)C` (configuration not stated), the inhibition was found to be 40%. Turning to `CC1(C)OB(CP(=O)(O)O)OC1(C)C`, the inhibition was 50%. For the compound `O=P(O)(O)CB(O)O`, the inhibition was determined as 0%.

`COP(=O)(CC1OC(C)(C)C(C)(C)O1)OC` yielded an inhibition of 0%.

In general, inhibition refers to how much of the control response was suppressed. A higher inhibition goes with strong suppression.
